This passage reports Cation influx and Ki results from ChEMBL document CHEMBL1132032, “3-Acyloxy-2-phenalkylpropyl amides and esters of homovanillic acid as novel vanilloid receptor agonists” (Bioorg Med Chem Lett, 1999).

pKi: −log10 of the molar value. Active and inactive are the calls of the source. No cut-off for these calls is given here. Bounds are passed on as bounds.

In assay [1] the target is T1, Vanilloid receptor (Rattus norvegicus) (UniProt Q9ERZ8+Q9WUD2+O35433). Nature of the assay: Cation influx relative to capsaicin (CAP) in cultured neonatal rat dorsal root ganglia (W = Weaker than CAP). In kind it is functional.
In assay [2] the target is Transient receptor potential cation channel subfamily V member 1 (Rattus norvegicus, UniProt O35433). Nature of the assay: In vitro binding affinity towards vanilloid receptor by [3H]RTX displacement.
For assay [3], the target named is T1, Vanilloid receptor (Rattus norvegicus). Nature of the assay: Cation influx relative to capsaicin (CAP) in cultured neonatal rat dorsal root ganglia (No response). Type of assay: functional.
Assay [4] shares this target. Nature of the assay: Cation influx relative to capsaicin (CAP) in cultured neonatal rat dorsal root ganglia (++ = 10xCAP). Type of assay: functional.
Assay [5] shares this target.
Description: Cation influx relative to capsaicin (CAP) in cultured neonatal rat dorsal root ganglia (+++ = 100xCAP)
Assay [6] has the same target. Nature of the assay: Cation influx relative to capsaicin (CAP) in cultured neonatal rat dorsal root ganglia (+ = similar to CAP). In kind it is functional.

T1 sequence (O35433 whole entry, looked up): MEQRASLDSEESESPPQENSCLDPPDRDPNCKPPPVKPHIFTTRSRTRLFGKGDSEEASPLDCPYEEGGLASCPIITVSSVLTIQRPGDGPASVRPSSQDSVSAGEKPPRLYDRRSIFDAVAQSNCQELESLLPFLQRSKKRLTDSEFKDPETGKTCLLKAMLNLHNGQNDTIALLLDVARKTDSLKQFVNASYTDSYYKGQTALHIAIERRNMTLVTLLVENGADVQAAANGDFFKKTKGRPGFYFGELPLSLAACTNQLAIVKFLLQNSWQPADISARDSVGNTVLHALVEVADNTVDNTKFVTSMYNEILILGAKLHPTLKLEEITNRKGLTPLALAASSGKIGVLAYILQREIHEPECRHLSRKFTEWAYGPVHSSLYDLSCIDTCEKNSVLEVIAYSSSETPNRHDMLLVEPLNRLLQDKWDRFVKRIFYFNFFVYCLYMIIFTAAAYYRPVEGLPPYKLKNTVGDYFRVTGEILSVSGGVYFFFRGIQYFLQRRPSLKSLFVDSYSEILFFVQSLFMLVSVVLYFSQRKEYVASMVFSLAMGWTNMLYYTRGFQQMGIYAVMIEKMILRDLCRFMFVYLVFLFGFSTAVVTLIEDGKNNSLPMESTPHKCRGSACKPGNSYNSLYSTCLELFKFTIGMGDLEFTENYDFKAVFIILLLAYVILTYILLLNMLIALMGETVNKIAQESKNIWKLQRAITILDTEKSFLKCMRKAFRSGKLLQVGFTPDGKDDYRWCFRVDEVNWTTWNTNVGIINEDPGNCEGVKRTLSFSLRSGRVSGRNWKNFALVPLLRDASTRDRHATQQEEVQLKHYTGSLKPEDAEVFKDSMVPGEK
T1 sequence (Q9ERZ8 whole entry, looked up): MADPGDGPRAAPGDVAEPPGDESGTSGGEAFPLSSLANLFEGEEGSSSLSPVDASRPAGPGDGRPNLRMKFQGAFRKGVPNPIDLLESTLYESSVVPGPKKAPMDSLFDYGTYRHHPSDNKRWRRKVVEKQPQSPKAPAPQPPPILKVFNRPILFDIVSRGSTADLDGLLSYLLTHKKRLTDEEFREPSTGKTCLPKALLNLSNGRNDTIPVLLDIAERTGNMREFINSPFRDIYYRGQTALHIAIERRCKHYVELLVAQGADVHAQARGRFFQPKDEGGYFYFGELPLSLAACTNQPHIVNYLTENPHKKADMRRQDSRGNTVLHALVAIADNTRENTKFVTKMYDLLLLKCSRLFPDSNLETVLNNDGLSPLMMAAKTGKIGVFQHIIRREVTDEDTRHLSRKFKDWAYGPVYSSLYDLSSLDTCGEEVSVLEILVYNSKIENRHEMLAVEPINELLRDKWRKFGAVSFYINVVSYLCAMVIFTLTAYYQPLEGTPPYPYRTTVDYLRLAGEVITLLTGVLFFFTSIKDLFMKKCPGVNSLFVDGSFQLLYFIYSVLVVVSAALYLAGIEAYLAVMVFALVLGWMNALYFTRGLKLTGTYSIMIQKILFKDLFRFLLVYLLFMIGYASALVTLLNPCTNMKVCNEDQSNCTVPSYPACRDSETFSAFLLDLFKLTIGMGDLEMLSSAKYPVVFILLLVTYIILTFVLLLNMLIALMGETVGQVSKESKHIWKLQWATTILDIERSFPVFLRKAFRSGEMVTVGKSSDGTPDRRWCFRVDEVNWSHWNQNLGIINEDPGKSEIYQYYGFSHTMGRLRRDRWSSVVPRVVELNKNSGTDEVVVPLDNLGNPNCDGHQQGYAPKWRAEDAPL
T1 sequence (Q9WUD2 whole entry, looked up): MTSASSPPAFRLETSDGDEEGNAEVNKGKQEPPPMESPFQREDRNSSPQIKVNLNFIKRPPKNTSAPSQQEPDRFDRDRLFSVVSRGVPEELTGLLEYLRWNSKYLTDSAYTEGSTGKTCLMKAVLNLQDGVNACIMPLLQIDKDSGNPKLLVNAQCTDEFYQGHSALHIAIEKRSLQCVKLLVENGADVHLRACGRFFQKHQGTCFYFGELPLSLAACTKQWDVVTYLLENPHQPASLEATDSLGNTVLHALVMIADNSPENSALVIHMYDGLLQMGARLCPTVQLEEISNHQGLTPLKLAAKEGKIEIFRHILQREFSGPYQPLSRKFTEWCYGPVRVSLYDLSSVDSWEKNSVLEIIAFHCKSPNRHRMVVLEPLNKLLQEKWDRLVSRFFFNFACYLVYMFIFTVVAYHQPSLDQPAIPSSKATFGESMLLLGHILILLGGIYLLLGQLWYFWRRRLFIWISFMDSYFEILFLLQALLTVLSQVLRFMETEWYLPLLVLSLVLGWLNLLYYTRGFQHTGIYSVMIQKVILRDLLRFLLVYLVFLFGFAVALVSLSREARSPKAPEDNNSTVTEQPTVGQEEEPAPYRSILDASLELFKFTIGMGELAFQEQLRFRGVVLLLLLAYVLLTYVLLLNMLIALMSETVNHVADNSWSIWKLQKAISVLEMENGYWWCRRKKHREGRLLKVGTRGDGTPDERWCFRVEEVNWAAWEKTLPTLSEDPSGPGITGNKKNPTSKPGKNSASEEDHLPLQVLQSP
Chain of Transient receptor potential cation channel subfamily V member 1 (O35433 whole entry): as the sequence (O35433 whole entry, looked up) above

For the compound `COC(=O)/C=C/C(CNC(=O)Cc1ccc(O)c(OC)c1)Cc1ccccc1` (stereo unspecified), the Cation influx entry in assay [1] was “Partially active”. In assay [2], this compound had a pKi of 4.87.
On to `COc1cc(CC(=O)OCC(COC(C)=O)Cc2ccccc2)ccc1O` (stereo unspecified), for which, in assay [3], the Cation influx entry was “inactive”. In assay [2], the pKi is less than 4.00.
Taken in the same sequence, the figures for `COc1cc(CC(=O)OC/C(=C\COCc2ccccc2)COC(C)=O)ccc1O` were “inactive” and less than 4.00.
Taken in the same sequence, the figures for `COc1cc(CC(=O)OCC(COCc2ccccc2)COC(C)=O)ccc1O` (stereo unspecified) were “inactive” and less than 4.00.
Regarding `COc1cc(CC(=O)NCC(COC(C)=O)Cc2ccccc2)ccc1O` (stereo unspecified), the Cation influx result in assay [1] is “Partially active”. This compound showed a pKi in assay [2] of 4.71.
Regarding `COc1cc(CC(=O)NCC(/C=C/C(=O)OC(C)(C)C)Cc2ccccc2)ccc1O` (stereo unspecified), the Cation influx result in assay [4] is “Active”. Further, the pKi in assay [2] is 6.32.
Consider `COc1cc(CC(=O)NCC(CCc2ccccc2)COC(=O)C(C)(C)C)ccc1O` (stereo unspecified), for which the Cation influx result in assay [4] was “Active”. The pKi in assay [2] is 6.53.
`COc1cc(CC(=O)NCC(COC(C)=O)OCc2ccccc2)ccc1O` (stereo unspecified): in assay [3], the Cation influx entry was “inactive”. For the same compound, the pKi in assay [2] was less than 4.00.
Taken in the same sequence, the figures for `COc1cc(CC(=O)NCC(COCc2ccccc2)COC(C)=O)ccc1O` (stereo unspecified) were “inactive” and 4.11.
Take `COc1cc(CC(=O)NC/C(=C\Cc2ccccc2)COC(=O)C(C)(C)C)ccc1O`: the Cation influx result in assay [4] is “Active”. The pKi in assay [2] is 5.91.
On to `COc1cc(CC(=O)NC/C(=C/Cc2ccccc2)COC(C)=O)ccc1O`, for which the Cation influx entry in assay [1] is “Partially active”. In assay [2], this compound showed a negative-log Ki (pKi) of 4.53.
In assay [2], `C=C(C)[C@]12C[C@@H](C)[C@@]34O[C@](Cc5ccccc5)(O[C@@H]1[C@@H]3C=C(COC(=O)Cc1ccc(O)c(OC)c1)C[C@]1(O)C(=O)C(C)=C[C@@H]41)O2` [RESINIFERATOXIN] had a pKi of 10.64. For the same compound, the Cation influx entry in assay [5] is “Active”.
As for `COc1cc(CC(=O)NCCCc2ccc(C)c(C)c2)ccc1OCCN` [DAVASAICIN], the Cation influx result in assay [6] is “Active”. For the same compound, the negative logarithm of the Ki (pKi) in assay [2] was 5.85.
Consider `COc1cc(CC(=O)NCC(COC(=O)C(C)(C)C)Cc2ccccc2)ccc1O` (stereo unspecified), for which, in assay [4], the Cation influx result is “Active”. In assay [2], this compound gave a pKi of 6.39.
`COc1cc(CC(=O)NC/C(=C\Cc2ccccc2)COC(C)=O)ccc1O`: the Cation influx result in assay [1] was “Partially active”. This compound had a pKi in assay [2] of 4.89.
Turning to `COc1cc(CC(=O)OC/C(=C/COCc2ccccc2)COC(C)=O)ccc1O`, in assay [3], the Cation influx result is “inactive”. The pKi in assay [2] is less than 4.00.
Consider `COc1cc(CC(=O)NCC(CCc2ccccc2)COC(C)=O)ccc1O` (stereo unspecified), for which the Cation influx entry in assay [1] is “Partially active”. Further, the pKi in assay [2] is 4.34.
For the compound `COc1cc(CC(=O)OCC(COC(C)=O)OCc2ccccc2)ccc1O` (stereo unspecified), in assay [3], the Cation influx result is “inactive”. Besides, the pKi in assay [2] is less than 4.00.
